According to patent US5002933A, “Hexapeptide and medicinal preparation produced from it to treat erosive and ulcerative lesions of gastrointestinal tract” (priority 1987, dated 1991):
Square brackets hold non-standard residues; d marks the D form. Ends that are not written are not given here.

Tests used:
[1] = system: cysteamine-induced duodenal ulcer; test: cysteamine-induced duodenal ulcer, oral administration; assay type: in vivo, rats; details: for Lesion scoring: given immediately and 6 h after cysteamine, score 0-4, 24 h; for Incidence: ratio of animals with ulcer to survivals; for Ulcer index: severity of lesion + doubled incidence; for Ulcer index reduction, %: versus control group
Procedure: The efficacy of the proposed hexapeptide has been studied on experimental animals. Vister male rats were used to compare the therapeutic efficacy of the proposed preparation with that of the known preparations.
Duodenal ulcer was induced in experimental animals by subcutaneous administration of cysteamine hydrochloride in a dose of 350 mg per kg body weight (in 0.5 ml of physiological saline). The proposed preparation was given to the rats immediately and in 6 hours following the administration of the provoking agent. The proposed hexapeptide was given into the stomach through a gastric tube in doses of 10 and 100 mcg/kg; the known hexapeptide (U.S. Pat. No. 4,565,705) was given in a dose of 100 mcg/kg (cimetidine in a dose 10 mg/kg) in 0.5 ml of a 3 percent milk (five-fold diluted in physiological saline). Control animals were given 0.5 ml of a 3 percent milk diluted in a 5-fold volume of physiological saline immediately after administration of cysteamine hydrochloride and 6 hours later. The animals were sacrificed by decapitation in 24 hours after administration of cysteamine hydrochloride and the condition of the duodenal mucosa was assessed in them.
The severity of lesion was determined for each group of the rats using the following scoring system: 0--absense of ulceration; 1--erosion; 2--single ulcer; 3--multiple ulcers; 4--perforating ulcer. Besides, the incidence of lesion was determined in each group: the ratio of the animals with ulcer to the total number of survivals by the end of the experiment was determined. A conventional ulcer index (severity of lesion+doubled incidence of affections) was thus derived as the summary involvement index.
The obtained findings were treated statistically using the Student t-criterion (for severity of lesion) and Pirson X^2 criterion (for the incidence). The differences at the level of 95 percent significance were taken as trustworthy (P<0.05).

[2] = system: indomethacin-induced ulcers of the small intestine; test: indomethacin-induced ulcers of the small intestine; assay type: in vivo, rats; details: for Average number of ulcers: 30-cm distal small intestine, 24 h after indomethacin 20 mg/kg
Procedure: The proposed hexapeptide was also studied in experiments with indomethacin-induced ulcers of the small intestine. The efficacy of the proposed hexapeptide was compared with that of sulfasalazine. Indomethacin was given to the rats into the stomach through a tube in a dose of 20 mg/kg, in the form of a suspension in 0.5 ml of physiological saline. The proposed hexapeptide or sulfasalazine were given in doses of 100 μg/kg or 200 mg/kg respectively immediately after administration of indomethacin or 6 hours later. Indomethacin was given with 0.5 ml of a 3% milk diluted in 5 volumes of physiological saline. The same amount of the milk solution was given to the control animals. The rats were decapitated in 24 hours after the administration of indomethacin and the number of ulcers on the mucosa of a 30-cm long distal small intestine was counted. […] The average number of ulcers was determined for each group of the animals.
The findings were processed statistically using the Student t-criterion. Differences at the significance level of 95 % were taken as trustworthy (at P<0.05).

[3] = blood cell composition and haemodynamic indices in the experiments; assay type: in vivo; details: in the experiments with the proposed hexapeptide
[4] = solubility of the hexapeptide powder; assay type: physicochemical
acute toxicity tests = assay type: in vivo

Compound `CN/C(=N/CCSCc1nc[nH]c1C)NC#N` [cimetidine, reference compound] has a Lesion scoring ([1]; 10 mg/kg per os) of 1.00, an Incidence ([1]; 10 mg/kg per os) of 0.33 and a Ulcer index ([1]; 10 mg/kg per os) of 1.66. For the same compound, the “Ulcer index reduction, %” value ([1]; 10 mg/kg per os) was 57%.

With `O=C(O)c1cc(/N=N/c2ccc(S(=O)(=O)Nc3ccccn3)cc2)ccc1O` [sulfasalazine, reference compound] the “decrease of the number of ulcers in the intestine” value ([2]; 200 mg/kg, versus control) was 46% and the “Average number of ulcers” value ([2]; sulfasalazine 200 mg/kg) was 27.50 ± 5.28.

With Y[dA]GFLE [proposed hexapeptide] the “changes in the cell composition of the blood” value [3] was “No changes”, the “changes in the main haemodynamic indices” value [3] was “No changes” and the solubility ([4]; distilled water, physiological saline, alcohol) was “readily soluble”. For the same compound, the solubility ([4]; ether, ethyl actate, benzene, or hexane) was “insoluble”, the “Average number of ulcers” value ([2]; 100 μg/kg) was 23.40 ± 5.36 and the “decrease of the average number of ulcers in the distal small intestine” value ([2]; 100 μg/kg, versus control) was 52%. The “anti-ulcer activity relative to sulfasalazine” value ([2]; dose comparison, 100 μg/kg versus sulfasalazine 200 mg/kg, small intestine) was 2000 times, the LD50 (acute toxicity tests) was 250 mg/kg and the Lesion scoring ([1]; 10 μg/kg per os) was 1.60. For the same compound, the Incidence ([1]; 10 μg/kg per os) was 0.80, the Ulcer index ([1]; 10 μg/kg per os) was 3.20 and the “Ulcer index reduction, %” value ([1]; 10 μg/kg per os) was 18%. It also gave a Lesion scoring ([1]; 100 μg/kg per os) of 0.83, an Incidence ([1]; 100 μg/kg per os) of 0.31 and a Ulcer index ([1]; 100 μg/kg per os) of 1.45. The “Ulcer index reduction, %” value ([1]; 100 μg/kg per os) was 63% and the “anti-ulcer activity relative to cimetidine” value ([1]; dose comparison, 100 μg/kg versus cimetidine 10 mg/kg, duodenum) was 100 times.
